Patent publication US12053460B2, “Inhibitors of intracellular invasion” (Meharry Medical College, priority 2016, dated 2024)
“Also recorded” adds a separate entry of the source.

Key:
P. gingivalis vesicles = assay: Invasion of P. gingivalis outer membrane vesicles into HOKs (confocal microscopy); settings: for inhibitory efficiency on internalization of P. gingivalis vesicles (comparison of compounds): vs DMSO control; for reduction of the total number of HOKs with intracellular vesicles: vs HOKs unexposed to compound, P<0.001
Description: Human oral keratinocytes (HOKs) were purchased from ScienCell Research Laboratories (Carlsbad, CA) and cultured in specific media, according to the manufacturer's instructions. Prior to treatment, HOKs (2×10^4) were seeded and grown overnight in poly-L-lysine-coated 35 mm glass bottom dishes (MatTek Corporation) at 37° C., 5% CO2, then exposed to P. gingivalis 33277 (2×10^6) or its vesicles (100 ng) for 0 or proper experimental times. To examine the role of Alop1 and dynasore in the bacterial invasion, the compounds were added to the medium 10 min prior to infection.
HOKs were fixed with 3.8% formaldehyde in a sodium phosphate buffer at room temperature for 10 min after treatment, permeabilized with 0.1% Triton X-100 for 10 min, and blocked with 5% bovine serum albumin in PBS for 1 h. HOKs were then immunostained with pan-specific antibodies of P. gingivalis 33277, and α Tubulin or Actin mono-antibodies (Santa Cruz Biotechnology, Dallas, Texas), followed by goat anti-rabbit IgG conjugated to Alex Fluor 546 (Invitrogen). Nuclei were stained with DAPI (Invitrogen). Confocal images were acquired using a Nikon A1R confocal microscope.
For infection rate determination, the number of HOKs with intercellular P. gingivalis cells or its vesicles were determined and divided by the total number of HOKs by counting the cells in 30 random areas (5.6 μm×5.6 μm) under the confocal microscope. Moreover, fluorescence intensity was determined in 100 individual cells using imaging software NIS-Elements AR 4.20, which reflects the level of intercellular P. gingivalis and its vesicles in the infected HOKs.

P. gingivalis = settings: literature [21]; cited from earlier work
P. gingivalis 33277 [1] = assay: Invasion of P. gingivalis cells into HOKs (confocal microscopy); type: cell-based, Porphyromonas gingivalis; settings: for P. gingivalis cell entry into HOKs: vs untreated HOKs
Description: Nuclei were stained with DAPI (Invitrogen).

P. gingivalis 33277 [2] = assay: Exit of intracellular P. gingivalis cells from HOKs; settings: 30 μM, 20 h, with gentamicin and metronidazole
fimA = assay: Gene expression in P. gingivalis (qRT-PCR); settings: 30 μM, 16 h
actin in HOKs = assay: Actin arrangement in HOKs (anti-actin staining, confocal microscopy); type: cell-based, human; settings: treated for 0, 10, 30 min or 2 h
microtubules in HOKs = assay: Microtubule arrangement in HOKs (anti-α-tubulin staining, confocal microscopy); type: cell-based, human; settings: 30 μM
[3] = after removal of compounds from growth media

Compound: C=C1[C@@H](C)[C@H]2[C@H](Cc3ccccc3)NC(=O)[C@]23[C@H](OC(C)=O)/C=C/[C@@](C)(O)C(=O)[C@@H](C)C/C=C/[C@H]3[C@@H]1O [cytochalasin D, reference compound]
- inhibitory efficiency on internalization of P. gingivalis vesicles (comparison of compounds) (P. gingivalis vesicles; 30 μM, 2 h): significant inhibitory activity was not observed
- P. gingivalis invasion of epithelial cells (P. gingivalis): inhibited P. gingivalis invasion of epithelial cells

Compound: COC(=O)Nc1nc2ccc(C(=O)c3cccs3)cc2[nH]1 [nocodazole, reference compound]
- P. gingivalis cell entry into HOKs (P. gingivalis 33277 [1]): effectively block P. gingivalis cell entry into HOKs
- P. gingivalis invasion of epithelial cells (P. gingivalis): inhibited P. gingivalis invasion of epithelial cells

Compound: O=C(N/N=C/c1ccc(O)c(O)c1)c1cc2ccccc2cc1O [dynasore]
- exit of intracellular P. gingivalis from HOKs (P. gingivalis 33277 [2]): no significant change in the fluorescence intensity; also recorded: able to block the bacterial exit from HOKs
- expression of fimA (fimA): specifically inhibited expression of fimA
- actin arrangement in HOKs (actin in HOKs): alteration of actin arrangement was not detected
- host cell invasion by P. gingivalis (P. gingivalis 33277 [1]; at concentrations of 1.2, 6, and 30 μM in vitro): inhibit host cell invasion
- P. gingivalis cell entry into HOKs (P. gingivalis 33277 [1]): effectively block P. gingivalis cell entry into HOKs
- reversibility of the effect on microtubule arrangement (microtubules in HOKs; [3]): reversible
- start of recovery of microtubule arrangement after compound removal (microtubules in HOKs; [3]): 2 h
- microtubule arrangement in HOKs (microtubules in HOKs; observed 30 min after treatment): microtubules became more condensed and formed a cortical outer shell at the cell membrane
- reduction of the total number of HOKs with intracellular vesicles (P. gingivalis vesicles; 6 μM, 2 h): 40%
- fluorescence intensity of internalized vesicles in HOKs (P. gingivalis vesicles; 30 μM, 100 infected HOKs, vs non-exposed HOKs): significantly lower fluorescence intensity
- inhibitory efficiency on internalization of P. gingivalis vesicles (comparison of compounds) (P. gingivalis vesicles; 30 μM, 2 h): highest efficiency
- reduction of the total number of HOKs with intracellular vesicles (P. gingivalis vesicles; 30 μM, 2 h): over 95%
- inhibitory activity on P. gingivalis vesicle invasion of HOKs, dose dependence (P. gingivalis vesicles; different doses, 2 h): dose-dependent manner
